Values after ≈ are worked out from the molar mass of the structure shown. Bridge positions count the residues as written; N and C are the ends. Square brackets hold non-standard residues; d marks the D form. Peptide text beside a SMILES is read from it. I, II: the chains in the order shown. Aoc = NCCCCCCCC(=O)O
Assays:
[1] = tested on: S. epidermidis; experiment: Microbial population shift assay, mixed planktonic culture; format: cell-based, Staphylococcus epidermidis; conditions: 10 μM peptide, 24 h, detection limit 200 cfu/mL
Method: (§1) Peptide (10 μM) or mock-treatment (1×PBS) was then added and samples were incubated at 37° C. for 24 h under anaerobic conditions (80% N2, 15% CO2, 5% H2). […] Plates were then incubated 37° C. under aerobic conditions (TH plates were incubated anaerobically) and colonies counted after 24 h to determine survivors. […] Gram stains and direct microscopic observation (from select isolated colonies) were undertaken to confirm species identity (data not shown). The detection limit of the assay was 200 cfu/mL.
(§2) We hypothesized that potential MH-STAMP dual-functionality could affect a particular set of bacteria within a mixed population, thereby promoting the outgrowth of non-targeted organisms and “shifting” the constituent makeup. To examine this possibility, defined mixed populations of planktonic cells were treated continuously and the make-up of the community examined after 24 h.

[2] = tested on: S. mutans; experiment: Post-antibiotic effect assay, monoculture growth after 10 min treatment; format: cell-based, Streptococcus mutans; conditions: peptide 10 min, then fresh medium
Method: The activity and selectivity of MH-STAMPs after a 10 min incubation was determined by growth retardation experiments against targeted and untargeted bacteria in monocultures, as described previously (Id.). Cells from overnight cultures were diluted to ˜5×10^6 cfu/mL in MH (or TH with 1% sucrose for S. mutans), normalized by OD600 0.05-0.1 and seeded to 96-well plates. Cultures were then grown under the appropriate conditions for 2 h (3 h for S. mutans) prior to the addition of peptides for 10 min. Plates were then centrifuged at 3000×g for 5 min, the supernatants discarded, fresh medium returned (MH or TH without sucrose for S. mutans), and incubation resumed. Bacterial growth after treatment was then monitored over time by OD600.
MH-STAMP antimicrobial kinetics was ascertained utilizing a variation of the classical post-antibiotic effect assay, which measures the ability of an agent to affect an organism's growth after a short exposure period. Monocultures of MH-STAMP-targeted and untargeted organisms were exposed to M8(KH)-20, M8(BL)-20, BL(KH)-20, or unmodified BD2.20, then allowed to recover. […] Furthermore, replacement of the targeting region with a non-binding peptide abolishes specific activity.

[3] = tested on: S. mutans; format: cell-based, Streptococcus mutans; conditions: average MIC with standard deviation, n = 10 assays
Method: (§3) The active AMPs, STAMPs and the like can be identified and/or validated using an in vitro screening assay. Indeed, in many instances the AMPs and/or STAMPS described herein will be used in vitro as preservatives, topical antimicrobial treatments, and the like.
(§4) Typically, the in vitro antimicrobial activity of antimicrobial agents is tested using standard NCCLS bacterial inhibition assays, or MIC tests (see, National Committee on Clinical Laboratory Standards “Performance Standards for Antimicrobial Susceptibility Testing,” NCCLS Document M100-S5 Vol. 14, No. 16, December 1994; “Methods for dilution antimicrobial susceptibility test for bacteria that grow aerobically-Third Edition,” Approved Standard M7-A3, National Committee for Clinical Standards, Villanova, Pa.).
(§5) Briefly, ˜1×10^5 cfu/mL bacteria were diluted in TH (S. mutans), or Mueller-Hinton (MH) broth (all other organisms) and distributed to 96-well plates. Serially-diluted (2-fold) peptides were then added and the plates incubated at 37° C. for 18-24 h. […] All experiments were conducted 10 times.

[4] = tested on: E. coli; format: cell-based, Escherichia coli; conditions: average MIC with standard deviation, n = 10 assays
Method: as §3, §4, §5

[5] = tested on: S. epidermidis; conditions: average MIC with standard deviation, n = 10 assays
Method: (§6) The active AMPs, STAMPs and the like can be identified and/or validated using an in vitro screening assay.
as §5, with “Peptides were evaluated for basic antimicrobial activity by broth microdilution, as described previously (Eckert et al. (2006) Antimicrob Agents Chemother., 50: 3651-3657; Eckert et al. (2006) Antimicrob Agents Chemother., 50: 1480-1488). Briefly,” for “Briefly,”

[6] = tested on: P. aeruginosa; conditions: average MIC with standard deviation, n = 10 assays
Method: as §6
as §5, with “Peptides were evaluated for basic antimicrobial activity by broth microdilution, as described previously (Eckert et al. (2006) Antimicrob Agents Chemother., 50: 3651-3657; Eckert et al. (2006) Antimicrob Agents Chemother., 50: 1480-1488). Briefly,” for “Briefly,”

[7] = tested on: E. coli; experiment: Microbial population shift assay, mixed planktonic culture; format: cell-based, Escherichia coli; conditions: 10 μM peptide, 24 h, detection limit 200 cfu/mL
Method: as §1, §2

[8] = tested on: P. aeruginosa; experiment: as above; format: cell-based, Pseudomonas aeruginosa; conditions: 10 μM peptide, 24 h, detection limit 200 cfu/mL
Method: as §1, §2

[9] = tested on: Klebsiella pneumoniae KAY 2026; format: cell-based; conditions: K. pneumoniae; average MIC with standard deviation, n = 10 assays
Method: (§7) Streptococcus mutans JM11 (spectinomycin resistant, UA140 background) was grown in Todd-Hewitt (TH) broth under anaerobic conditions (80% N2, 15% CO2, 5% H2) at 37° C. Merritt et al. (2005) J Microbiol Meth., 61: 161-170. All bacteria were grown overnight to an OD600 of 0.8-1.0 prior to appropriate dilution and antimicrobial testing.
as §5

[10] = tested on: Staphylococcus aureus Newmann; format: cell-based; conditions: S. aureus; average MIC with standard deviation, n = 10 assays
Method: as §7, §5

[11] = tested on: S. mutans; experiment: Microbial population shift assay, mixed planktonic culture; format: cell-based, Streptococcus mutans; conditions: 10 μM peptide, 24 h, detection limit 200 cfu/mL
Method: as §1, §2

[12] = tested on: BHK-21 fibroblasts; experiment: Cytotoxicity, Promega CellTiterGlo assay; format: cell-based, hamster; conditions: BHK cells
Method: Streptococcus oralis ATCC 10557, Streptococcus gordonii (Challis), Streptococcus sanguinis (NY101), Streptococcus mitis ATCC 903, Streptococcus salivarius ATCC 13419 and S. mutans wild-type UA140 and JM11 (spectinomycin-resistant) strains were grown in Todd-Hewitt (TH) broth 37° C. in an anaerobic atmosphere of 80% N2, 10% CO2, and 10% H2. BHK-21 (ATCC CRL-10) fibroblasts were propagated in DMEM with 10% FBS, 1 mM sodium pyruvate, 100 units/mL penicillin G, and 100 μg/mL streptomycin at 37° C. with 5% CO2. Cells were detached with 0.25% trypsin and subcultured as recommended by the supplier.
The effect of RB and C16-RB on human fibroblasts was ascertained by utilizing the Promega CellTiterGlo assay, as described by the manufacturer. Briefly, fibroblasts were grown to confluence, detached, and seeded to ˜5,000 cells per well in a 96-well opaque walled, clear bottom 96-well plate (Nunc International). For long-term dark toxicity, cells were allowed to attach to for 18 h before the culture medium was replaced with medium plus serially-diluted RB or C16-RB (200 μM to 390 nM) or medium alone. After 18-24 h, equal volume Cell Titer Glo reagent was added to each well and mixed. Luciferace activity was then quantified to measure cell viability (Varian Fluorometer in Biolumenescence mode). […] After exposure, cultures were disrupted with Cell Titer Glo and luciferase activity quantitated as above.

[13] = tested on: S. mutans JM11 and non-cariogenic oral streptococci in mixed biofilms; experiment: Selective photodynamic assay against multispecies biofilms; format: cell-based, Streptococcus mutans; conditions: mixed biofilm, blue light, plus potassium gluconate
Method: To gauge C16-RB selectivity for S. mutans, similar assays were conducted against multispecies biofilms. Mixed biofilms were seeded by diluting (1:5000) a mixture of equal parts S. oralis, S. gordonii, S. mitis, S. sanguinis, S. salivarius, and S. mutans JM11 (made from overnight cultures) into TH with 1% sucrose, 1% glucose, and 1% mannose. Biofilms were incubated and treated as described above with the addition of vitamin C or potassium gluconate. After the addition of agent and 5 min incubation, biofilms were washed 1× with 1×PBS prior to light exposure. After PDT and biofilm disruption, survivors were plated on TH, and TH supplemented with 800 μg/mL spectinomycin, which allowed for quantitation of surviving total oral streptococci and surviving S. mutans, respectively.
C16-RB was next evaluated for selectivity in mixed cultures containing S. mutans and non-cariogenic oral streptococci that compete for the same niche on the tooth surface. We utilized mixed biofilms of S. mutans transformed with spectinomycin resistance (strain JM11, Merritt, et al., 2005), plus S. oxalis, S. gordonii, S. mitis, S. sanguinis, and S. salivarius. The mixed cultures were grown 24 and then treated with RB or C16-RB as indicated, plus potassium gluconate to minimize killing of untargeted bacteria by reducing the superoxide-producing activity of the free C16-RB not bound to S. mutans. […]

[14] = tested on: S. mutans UA140 biofilms; experiment: Photodynamic antimicrobial assay against single-species biofilms; format: cell-based, Streptococcus mutans; conditions: 5 μM, no light
Method: To evaluate C16-RB against monoculture biofilms, S. mutans UA140 was grown overnight in TH prior to inoculation for biofilm formation. For biofilms, 1:5000 dilution of overnight culture was made into TH with 1% sucrose in 2 mL centrifuge tubes (200 μL volume) and grown 24 h under anaerobic conditions. After incubation, biofilms were treated for 5 min with 5 or 25 μM C16-RB or 5 μM RB in 1×PBS, or PBS alone, followed by removal of supernatant and exposure to 5 min blue light (emission 400-550 nm, power 400 mW/cm^2) from an Astralis 7 (Ivoclar Vivodent, Austria) handheld LED commonly used as a dental curing light. The light source was suspended 4 cm from the tube bottom (even with the mouth of the tube). A duplicate set of samples were left covered to serve as dark controls. After treatment, biofilms were mechanically disrupted and plated to determine cfu/mL.
After synthesis, the basic photosensitization potential of C16-RB was assessed by challenging mature single-species S. mutans biofilms (grown 24 h) with C16-RB or unmodified RB, followed by blue emission from a dental curing light.

Row | SMILES | surviving S. epidermidis cfu/mL [1] | S. mutans growth (OD600) after treatment [2] | MIC [3] [µM] | MIC [4] [µM] | MIC [5] [µM] | MIC [6] [µM] | surviving E. coli cfu/mL [7] | surviving P. aeruginosa cfu/mL [8] | MIC [9] [µM] | MIC [10] [µM] | surviving S. mutans cfu/mL [11] | IC50 ([12]; 5 min dark) [µM] | photo-associated (light-dependent) toxicity ([12]; blue light exposure) | ratio of surviving S. mutans:non-cariogenic streptococci cfu [13] | decrease in cfu/mL, dark controls [14]
1 | CC[C@H](C)[C@H](NC(=O)[C@H](Cc1ccccc1)NC(=O)CCCCCCCNC(=O)[C@H](CCCCNC(=O)CNC(=O)CNC(=O)CNC(=O)[C@H](C)NC(=O)[C@H](CCC(=O)O)NC(=O)[C@H](CC(N)=O)NC(=O)[C@H](C)NC(=O)[C@H](C)NC(=O)[C@@H](N)CC(=O)O)NC(=O)CNC(=O)CNC(=O)CNC(=O)[C@H](CCCNC(=N)N)NC(=O)[C@H](CC(N)=O)NC(=O)[C@H](CC(C)C)NC(=O)[C@H](Cc1ccccc1)NC(=O)[C@H](CCCNC(=N)N)NC(=O)[C@H](Cc1ccccc1)NC(=O)[C@H](Cc1ccccc1)NC(=O)[C@@H](NC(C)=O)[C@@H](C)O)C(=O)N[C@@H](CCCNC(=N)N)C(=O)N[C@@H](CCCCN)C(=O)N[C@@H](Cc1ccccc1)C(=O)N[C@@H](CC(C)C)C(=O)N[C@@H](CCCCN)C(=O)N[C@@H](CCCCN)C(=O)N[C@@H](Cc1c[nH]c2ccccc12)C(=O)N[C@@H](CC(C)C)C(=O)N[C@@H](CC(C)C)C(N)=O [M8(BL)-20] (I: Ac-TFFRFLNRGGGK[Aoc]FIRKFLKKWLL-NH2 / II: H-DAANEAGGG; amide I:12-II:C) | not affected or affected to a lesser extent | effectively retarded | 6.25 (≈ 23.7 µg/mL) | 5.97 ± 0.94 (≈ 22.7 µg/mL) | 6.25 (≈ 23.7 µg/mL) | 50 (≈ 190 µg/mL) | not affected or affected to a lesser extent | not affected or affected to a lesser extent | 6.88 ± 1.98 (≈ 26.1 µg/mL) | 18.05 ± 6.58 (≈ 68.6 µg/mL) | greatly reduced compared to input cfu/mL | – | – | – | –
2 | O=C1OC2(c3cc(I)c(O)c(I)c3Oc3c2cc(I)c(O)c3I)c2c(Cl)c(Cl)c(Cl)c(Cl)c21 [RB, rose bengal] | – | – | – | – | – | – | – | – | – | – | – | > 100 | light-dependent toxicity was observed | ~1 | appreciable decreases in cfu/mL were not observed

Reference: US9597407B2, “Targeted antimicrobial moieties” (C3 Jian, Inc., priority 2009, dated 2017)
